Measurements taken from the RepoRT retention time repository (doi:10.1021/acs.analchem.2c02893).

Assay: RP, Thermo Scientific Acclaim RSLC 120 C18, 100 × 2.1 mm, 2.2 µm, 30 °C, 0.2 mL/min, estimated dead time 1.1 min; A: 90% water + 10% methanol + 0.01% formic acid + 5 mM ammonium formate, pH 3.61; B: methanol + 0.01% formic acid + 5 mM ammonium formate, pH 3.61; gradient (min/%B) 0/1 1/1 2/39 13/99.9 15/99.9 15.1/1 20.1/1
Conditions: stereoisomer not certain

SMILES | LC retention time
COc1cc(CC(C)N)c(OC)cc1C (stereo not drawn) [DOM (2.5-Dimethoxy-4-methylamphetamine)] | 5.83 min
CCCN(CCC)CCc1c[nH]c2ccccc12 [DPT] | 5.26 min
CCCCCCOC(=O)NC(=N)c1ccc(NCc2nc3cc(C(=O)N(CCC(=O)OCC)c4ccccn4)ccc3n2C)cc1 [Dabigatran etexilate] | 9.29 min
O=c1c(-c2ccc(O)cc2)coc2cc(O)ccc12 [Daidzein] | 6.89 min
Cc1ccc(NC(=O)NC(C)(C)c2ccccc2)cc1 [Daimuron (Dymron)] | 9.68 min
CN(C)NC(=O)CCC(=O)O [Daminozide] | 2.18 min
CN1CC2CC1CN2c1cc2c(cc1F)c(=O)c(C(=O)O)cn2C1CC1 (stereo not drawn) [Danofloxacin] | 4.54 min
Cc1ccccc1N1CCN(CCc2nnc3n2CCCC3)CC1 [Dapiprazole] | 5.66 min
CN(C)C(CCOc1cccc2ccccc12)c1ccccc1 (stereo not drawn) [Dapoxetine] | 8.34 min
Nc1ccc(S(=O)(=O)c2ccc(N)cc2)cc1 [Dapsone] | 4.13 min
CC(C)CN(CC(O)C(Cc1ccccc1)NC(=O)OC1COC2OCCC12)S(=O)(=O)c1ccc(N)cc1 (stereo not drawn) [Darunavir] | 8.21 min
CN1CSC(=S)N(C)C1 [Dazomet] | 3.97 min
N=C(N)N1CCc2ccccc2C1 [Debrisoquine] | 4.39 min
CCCCCCCCCCOc1cc2c(=O)c(C(=O)OCC)c[nH]c2cc1OCC [Decoquinate] | 13.4 min
CC(=O)OCC(=O)C12N=C(C)OC1CC1C3CCC4=CC(=O)C=CC4(C)C3C(O)CC12C (stereo not drawn) [Deflazacort] | 9.35 min
O=C1CN=C(c2ccccc2Cl)c2cc(Cl)ccc2N1 [Delorazepam] | 8.81 min
CCS(=O)(=O)CCSP(=O)(OC)OC [Demeton-S-methylsulfone] | 4.15 min
CCOP(=O)(OCC)SCCSCC.CCOP(=S)(OCC)OCCSCC [Demeton] | 8.91 min
O=C1CN(O)C(c2ccccc2)=c2cc(Cl)ccc2=N1 [Demoxepam] | 7.14 min
CC[N+](CC)(CC(=O)Nc1c(C)cccc1C)Cc1ccccc1 [Denatonium] | 12.3 min
CCC(CC)COC(C(=O)OCCN(C)C)(c1ccccc1)c1ccccc1 [Denaverine] | 11.6 min
C#CCN(C)C(C)Cc1ccccc1 (stereo not drawn) [Deprenyl / Selegiline] | 4.68 min

SMILES | LC retention time
C#CC[N+](C)([O-])C(C)Cc1ccccc1 (stereo not drawn) [Deprenyl-N-oxide] | 5.33 min
C#CCNC(C)Cc1ccccc1 (stereo not drawn) [Deprenyl-Nor] | 4.66 min
CCc1cc2c(s1)-n1c(C)nnc1CN=C2c1ccccc1 [Deschloroetizolam] | 8.43 min
Clc1ccc2c(c1)CCc1cccnc1C2=C1CCNCC1 [Desloratadine] | 7.48 min
CNc1nc(NC(C)C)nc(SC)n1 [Desmetryn] | 8.17 min
CN1CCC23c4c5ccc(O)c4OC2CCCC3C1C5 (stereo not drawn) [Desomorphine] | 3.84 min
CC1(C)OC2CC3C4CCC5=CC(=O)C=CC5(C)C4C(O)CC3(C)C2(C(=O)CO)O1 (stereo not drawn) [Desonide] | 9.04 min
c1ccc(C(c2ccccc2)C2CCCCN2)cc1 (stereo not drawn) [Desoxypipradol] | 6.3 min
Nc1cn[nH]c(=O)c1Cl [Desphenyl chloridazon] | 2.32 min
CCC1C2CC3C4N(C)c5ccccc5C45CC(C2C5O)[N+]3(CC(O)CN(CC)CC)C1O (stereo not drawn) [Detajmium] | 4.62 min
CC1CC2C3CCC4=CC(=O)C=CC4(C)C3(F)C(O)CC2(C)C1(O)C(=O)CO (stereo not drawn) [Dexamethasone] | 8.38 min
COc1ccc2c(c1)C13CCCCC1C(C2)N(C)CC3 (stereo not drawn) [Dextromethorphan] | 6.51 min
CCC(=O)OC(Cc1ccccc1)(c1ccccc1)C(C)CN(C)C (stereo not drawn) [Dextropropoxyphene] | 7.73 min
CC12CCC3C(CC=C4CC(O)CCC43C)C1CCC2=O (stereo not drawn) [Dhydroepiandrosterone (DHEA) / Androstenolone] | 10.2 min
CC(C)N(CCc1c[nH]c2ccccc12)C(C)C [DiPT] | 4.87 min
CC(C)c1cc(Oc2ccccc2)cc(C(C)C)c1NC(=S)NC(C)(C)C [Diafenthiuron] | 12.9 min
CCOP(=S)(OCC)SC(CCl)N1C(=O)c2ccccc2C1=O (stereo not drawn) [Dialifos] | 11.5 min
CC(C)N(C(=O)SCC(Cl)=CCl)C(C)C [Diallate] | 11.8 min
CC(=O)Nc1c(I)c(NC(C)=O)c(I)c(C(=O)O)c1I [Diatrizoate (Amidotrizoate acid)] | 2.79 min
O=C1CN=C(c2ccccc2)c2cc(Cl)ccc2N1 [Diazepam-Nor] | 9.23 min
CN1C(=O)CN=C(c2ccccc2)c2cc(Cl)ccc21 [Diazepam] | 9.53 min
CCOP(=O)(OCC)Oc1cc(C)nc(C(C)C)n1 [Diazinon-O-analog] | 8.65 min

SMILES | LC retention time
CCOP(=S)(OCC)Oc1cc(C)nc(C(C)C)n1 [Diazinon] | 11 min
CN(C)CCN1C(=O)c2ccccc2N(C)c2ccccc21 [Dibenzepin] | 5.49 min
CCC(C(=O)c1ccc2c(c1)OCO2)N(C)C (stereo not drawn) [Dibutylone] | 4.38 min
COC(=O)c1c(Cl)ccc(Cl)c1OC [Dicamba-methyl] | 9.64 min
COc1c(Cl)ccc(Cl)c1C(=O)O [Dicamba] | 4.97 min
COP(=S)(OC)Oc1ccc([N+](=O)[O-])cc1Cl [Dicapthon] | 10.5 min
CCOP(=S)(OCC)Oc1ccc(Cl)cc1Cl [Dichlofenthion] | 12.6 min
CN(C)S(=O)(=O)N(SC(F)(Cl)Cl)c1ccccc1 [Dichlofluanid] | 10 min
C=CCN(CC=C)C(=O)C(Cl)Cl [Dichlormid] | 7.18 min
NC(=O)c1c(Cl)cccc1Cl [Dichlorobenzamide] | 4.48 min
COC(=O)C(C)Oc1ccc(Cl)cc1Cl (stereo not drawn) [Dichlorprop-methyl] | 10.5 min
CN1C(=O)CN=C(c2ccccc2Cl)c2cc(Cl)ccc21 [Diclazepam] | 9.19 min
CC(C)(C)C(O)C(Cc1ccc(Cl)cc1Cl)n1cncn1 (stereo not drawn) [Diclobutrazol] | 10.7 min
O=C(O)Cc1ccccc1Nc1c(Cl)cccc1Cl [Diclofenac] | 10.2 min
COC(=O)C(C)Oc1ccc(Oc2ccc(Cl)cc2Cl)cc1 (stereo not drawn) [Diclofop-methyl] | 12.3 min
Nc1c(Cl)cc([N+](=O)[O-])cc1Cl [Dicloran] | 8.84 min
Cc1onc(-c2c(Cl)cccc2Cl)c1C(=O)NC1C(=O)N2C1SC(C)(C)C2C(=O)O (stereo not drawn) [Dicloxacillin] | 7.8 min
OC(c1ccc(Cl)cc1)(c1ccc(Cl)cc1)C(Cl)(Cl)Cl [Dicofol] | 11.8 min
COP(=O)(OC)OC(C)=CC(=O)N(C)C [Dicrotophos] | 4.5 min
CCN(CC)CCOC(=O)C1(C2CCCCC2)CCCCC1 [Dicycloverine] | 9.99 min
CCCCCCCCCC[N+](C)(C)CCCCCCCCCC [Didecyldimethylammonium (DADMAC (C10:C10))] | 12.6 min
CC12CCC3=C4CCC(=O)C=C4CCC3C1CCC2(O)CC#N (stereo not drawn) [Dienogest] | 8.09 min

SMILES | LC retention time
CCN(CC)CCN1c2ccccc2Sc2ccccc21 [Diethazine] | 7.76 min
CCOc1ccc(NC(=O)OC(C)C)cc1OCC [Diethofencarb] | 9.04 min
CC1COC(Cn2cncn2)(c2ccc(Oc3ccc(Cl)cc3)cc2Cl)O1 (stereo not drawn) [Difenoconazole] | 11.6 min
COc1ccc(Oc2ccc(NC(=O)N(C)C)cc2)cc1 [Difenoxuron] | 8.43 min
Cn1c(-c2ccccc2)cc(-c2ccccc2)[n+]1C [Difenzoquat (Ion 1+)] | 5.21 min
CN1CCN(c2cc3c(cc2F)c(=O)c(C(=O)O)cn3-c2ccc(F)cc2)CC1 [Difloxacin] | 4.96 min
O=C(NC(=O)c1c(F)cccc1F)Nc1ccc(Cl)cc1 [Diflubenzuron] | 10.6 min
O=C(Nc1ccc(F)cc1F)c1cccnc1Oc1cccc(C(F)(F)F)c1 [Diflufenican] | 11.7 min
CC(=NNC(=O)Nc1cc(F)cc(F)c1)c1ncccc1C(=O)O [Diflufenzopyr] | 6.22 min
COCCOCCOC [Diglyme] | 3.9 min
CC1(C)OCC2OC3(C(=O)O)OC(C)(C)OC3C2O1 (stereo not drawn) [Dikegulac] | 4.76 min
COc1ccc(C2Sc3ccccc3N(CCN(C)C)C(=O)C2O)cc1 (stereo not drawn) [Diltiazem-Deacetyl] | 6.41 min
CNCCN1C(=O)C(OC(C)=O)C(c2ccc(OC)cc2)Sc2ccccc21 (stereo not drawn) [Diltiazem-Nor] | 7.21 min
COc1ccc(C2Sc3ccccc3N(CCN(C)C)C(=O)C2OC(C)=O)cc1 (stereo not drawn) [Diltiazem] | 7.18 min
CN(C)C(=O)Nc1ccc(-n2nc(C(C)(C)C)oc2=O)c(Cl)c1 [Dimefuron] | 8.76 min
COCCN(C(=O)CS(=O)(=O)O)c1c(C)cccc1C [Dimethachlor-ESA] | 5.54 min
COCCN(C(=O)CCl)c1c(C)cccc1C [Dimethachlor] | 8.58 min
COCC(C)N(C(=O)CS(=O)(=O)O)c1c(C)csc1C (stereo not drawn) [Dimethenamide-ESA] | 6.28 min
COCC(C)N(C(=O)C(=O)O)c1c(C)csc1C (stereo not drawn) [Dimethenamide-OXA] | 6.36 min
COCC(C)N(C(=O)CCl)c1c(C)csc1C (stereo not drawn) [Dimethenamide] | 9.26 min
CC1=C(C)S(=O)(=O)CCS1(=O)=O [Dimethipin] | 3.73 min
CCCCc1c(C)nc(N(C)C)[nH]c1=O [Dimethirimol] | 7.7 min
